The values that follow come from patent US10934302B1, “SHP2 phosphatase inhibitors and methods of use thereof” (Relay Therapeutics, Inc., priority 2018, dated 2021).

Each structure is given as a SMILES string. Bounds are passed on as bounds.

The target in the assay is SHP2 (Homo sapiens (Human), UniProt Q06124). Kind of assay: SHP2 allosteric inhibition assay (DiFMUP prompt fluorescence). Format: biochemical. To be noted: 0.25 nM SHP2 activated with 0.5 μM peptide IRS1_pY1172(dPEG8)pY1222; substrate DiFMUP.
SHP2, sequence (Q06124 whole entry): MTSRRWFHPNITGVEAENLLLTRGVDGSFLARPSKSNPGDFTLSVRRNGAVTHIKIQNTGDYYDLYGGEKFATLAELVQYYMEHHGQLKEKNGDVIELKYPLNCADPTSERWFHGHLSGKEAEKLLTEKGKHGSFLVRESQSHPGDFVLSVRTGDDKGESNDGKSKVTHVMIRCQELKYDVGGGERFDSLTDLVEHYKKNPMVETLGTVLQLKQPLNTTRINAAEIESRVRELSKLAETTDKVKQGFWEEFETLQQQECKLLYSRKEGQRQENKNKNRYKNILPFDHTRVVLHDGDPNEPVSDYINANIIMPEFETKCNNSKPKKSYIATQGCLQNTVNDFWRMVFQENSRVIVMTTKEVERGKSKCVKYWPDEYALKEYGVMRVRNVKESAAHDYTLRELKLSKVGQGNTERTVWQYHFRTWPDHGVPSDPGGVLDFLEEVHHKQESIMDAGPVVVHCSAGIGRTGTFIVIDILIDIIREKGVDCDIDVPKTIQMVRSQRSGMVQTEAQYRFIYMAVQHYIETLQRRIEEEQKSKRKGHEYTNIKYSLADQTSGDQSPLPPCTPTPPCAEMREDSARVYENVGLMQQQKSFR
Molecule `N#Cc1cccc2c1CC1(CCN(c3cnc4c(N5CCCc6ncccc65)n[nH]c4n3)CC1)[C@@H]2N` [Example 117, (S)-1-amino-1′-(3-(3,4-dihydro-1,5-naphthyridin-1(2H)-yl)-1H-pyrazolo[3,4-b]pyrazin-6-yl)-1,3-dihydrospiro[indene-2,4′-piperidine]-4-carbonitrile] displayed an IC50 of at most 50 nM.

Consider `N[C@H]1c2cccc(F)c2CC12CCN(c1cnc3c(N4CCCc5ncccc54)n[nH]c3n1)CC2` [Example 16], for which the IC50 lay in the range of 1000 to 10000 nM. `N[C@@H]1c2cc(F)cc(F)c2CC12CCN(c1cnc3c(N4CCCc5ncccc54)n[nH]c3n1)CC2` [Example 109] yielded an IC50 of at most 50 nM. As to `C[C@@H](C#N)N(C)c1n[nH]c2nc(N3CCC4(CC3)Cc3ccccc3[C@H]4N)cnc12` (racemic) [Example 150, (S)-2-((6-((S)-1-amino-1,3-dihydrospiro[indene-2,4′-piperidin]-1′-yl)-1H-pyrazolo[3,4-b]pyrazin-3-yl)(methyl)amino)propanenitrile], the IC50 is 50 to 1000 nM. On to `Nc1nccc(Sc2cnc(N3CCC4(CC3)Cc3ccccc3[C@H]4N)cn2)c1Cl` [Example 63], for which the IC50 lay within 50 to 1000 nM. As to `N#Cc1cccc2c1[C@@H](N)C1(CCN(c3cnc4c(N5CCCc6ncccc65)n[nH]c4n3)CC1)C2` [Example 105, (3S)-3-amino-1′-[3-(1,2,3,4-tetrahydro-1,5-naphthyridin-1-yl)-1H-pyrazolo[3,4-b]pyrazin-6-yl]-1,3-dihydrospiro[indene-2,4′-piperidine]-4-carbonitrile], the IC50 was at most 50 nM. For the molecule `Cc1cc(N2CCC3(CC2)Cc2ccccc2[C@H]3N)cc(S(C)(=O)=O)c1` [Example 271, (S)-1′-(3-methyl-5-(methylsulfonyl)phenyl)-1,3-dihydrospiro[indene-2,4′-piperidin]-1-amine], the IC50 is at most 50 nM.

In the case of `Cc1nccc(Sc2n[nH]c3nc(N4CCC5(CC4)Cc4ccccc4[C@H]5N)c(CO)nc23)c1Cl` [Example 89], the IC50 was at most 50 nM. In turn, `N[C@@H]1c2ccccc2CC12CCN(c1cnc(SCC3CCCC3)cn1)CC2` [Example 264, (S)-1′-(5-((cyclopentylmethyl)thio)pyrazin-2-yl)-1,3-dihydrospiro[indene-2,4′-piperidin]-1-amine] returned a 50% inhibitory concentration (IC50) of at most 50 nM. Regarding `Cn1ccc2c(c1=O)CCCN2c1n[nH]c2nc(N3CCC4(CC3)Oc3ccccc3[C@H]4N)cnc12` [Example 57], the half-maximal inhibitory concentration (IC50) was at most 50 nM. With `N[C@H]1c2cccc(F)c2CC12CCN(c1cnc3cn[nH]c3n1)CC2` [Example 24], the concentration for half-maximal inhibition (IC50) was at most 50 nM. The molecule `N[C@@H]1c2ccccc2CC12CCN(c1cnc(N3CCCc4ncccc43)cn1)CC2` [Example 146, (3S)-1′-[5-(1,2,3,4-tetrahydro-1,5-naphthyridin-1-yl)pyrazin-2-yl]-1,3-dihydrospiro[indene-2,4′-piperidin]-3-amine] registered a half-maximal inhibitory concentration (IC50) of at most 50 nM. Molecule `N[C@@H]1c2ccccc2CC12CCN(c1cnc(N3CCCC3c3ccccc3)cn1)CC2` (stereo in doubt) [Example 164, (3S)-1′-{5-[(2S)-2-phenylpyrrolidin-1-yl]pyrazin-2-yl}-1,3-dihydrospiro[indene-2,4′-piperidin]-3-amine] returned a half-inhibitory concentration (IC50) of at most 50 nM.

With `N[C@@H]1c2ccccc2CC12CCN(c1ncc(N3CCCc4ccccc43)nc1CO)CC2` [Example 212, {3-[(3S)-3-amino-1,3-dihydrospiro[indene-2,4′-piperidin]-1′-yl]-6-(1,2,3,4-tetrahydroquinolin-1-yl)pyrazin-2-yl}methanol], the IC50 was at most 50 nM. `Cn1ccc(Oc2n[nH]c3nc(N4CCC5(CC4)Cc4ccccc4[C@H]5N)cnc23)c(Cl)c1=O` [Example 128, (S)-4-((6-(1-amino-1,3-dihydrospiro[indene-2,4′-piperidin]-1′-yl)-1H-pyrazolo[3,4-b]pyrazin-3-yl)oxy)-3-chloro-1-methylpyridin-2(H)-one] returned a 50% inhibitory concentration (IC50) of at most 50 nM. Molecule `N[C@@H]1c2ccccc2CC12CCN(c1cnc(SC3CCCC3)cn1)CC2` [Example 168, (3S)-1′-[5-(cyclopentylsulfanyl)pyrazin-2-yl]-1,3-dihydrospiro[indene-2,4′-piperidin]-3-amine] returned a 50% inhibitory concentration (IC50) of at most 50 nM. The result for `N[C@@H]1c2ccccc2CC12CCN(c1cnc3c(-c4cc5cc[nH]c5cc4F)n[nH]c3n1)CC2` [Example 72] reads at most 50 nM; that for `Cc1nc2c(N3CCCCC3)n[nH]c2nc1N1CCC2(CC1)Cc1ccccc1[C@H]2N` [Example 152, (3S)-1′-[5-methyl-3-(piperidin-1-yl)-1H-pyrazolo[3,4-b]pyrazin-6-yl]-1,3-dihydrospiro[indene-2,4′-piperidin]-3-amine], at most 50 nM; that for `N[C@@H]1c2ccccc2CC12CCN(c1cnc3c(-c4ccnc(Cl)c4Cl)n[nH]c3n1)CC2` [Example 70], 50 to 1000 nM. `N[C@@H]1c2ccccc2CC12CCN(c1cnc3ccccc3n1)CC2` [Example 179] returned an IC50 of at most 50 nM. The result for `Cc1nc2c(N3CCCc4ncccc43)n[nH]c2nc1N1CCC2(CC1)Cc1ccccc1[C@H]2N` [Example 124, (S)-1′-(3-(3,4-dihydro-1,5-naphthyridin-1(2H)-yl)-5-methyl-1H-pyrazolo[3,4-b]pyrazin-6-yl)-1,3-dihydrospiro[indene-2,4′-piperidin]-1-amine] reads at most 50 nM; that for `Cn1c(N2CCC3(CC2)Cc2ccccc2[C@H]3N)ccc(N2CCCc3ccccc32)c1=O` [Example 206], at most 50 nM. To `CN(C)C(=O)c1ccc2c(c1)[C@H](N)C1(CCN(c3cnc4c(N5CCCc6ncccc65)n[nH]c4n3)CC1)C2` [Example 28] belongs at most 50 nM. The molecule `Nc1nccc(Sc2ccc(N3CCC4(CC3)Oc3cc(F)ccc3[C@H]4N)cn2)c1Cl` [Example 224] came in with an IC50 of 50 to 1000 nM.

For the molecule `N[C@H]1c2ccccc2C[C@]12CC[C@H](c1cnc(Sc3ccnc(Cl)c3Cl)cn1)CC2` (single isomer, unassigned) [Example 276, (1s, 3′R, 4S)-4-{5-[(2,3-dichloropyridin-4-yl)sulfanyl]pyrazin-2-yl}-1′,3′-dihydrospiro[cyclohexane-1,2′-inden]-3′-amine], the IC50 was at most 50 nM.

Turning to `NC1c2ccccc2C[C@]12CC[C@H](c1ccc(SCC3CC3)nc1)CC2` (single isomer, unassigned) [Example 282, (1s, 3′R, 4S)-4-{6-[(cyclopropylmethyl)sulfanyl]pyridin-3-yl}-1′,3′-dihydrospiro[cyclohexane-1,2′-inden]-3′-amine], the half-inhibitory concentration (IC50) was at most 50 nM. Molecule `CC(=O)N1CCN(c2n[nH]c3nc(N4CCC5(CC4)Cc4ccccc4[C@@H]5N)cnc23)c2ccccc21` [Example 1, 1-(4-{6-[(3R)-3-amino-1,3-dihydrospiro[indene-2,4′-piperidin]-1′-yl]-1H-pyrazolo[3,4-b]pyrazin-3-yl}-1,2,3,4-tetrahydroquinoxalin-1-yl)ethan-1-one] came in with a half-maximal inhibitory concentration (IC50) of at most 50 nM.

In turn, `Cn1ccc2c(c1=O)CCCN2c1n[nH]c2nc(N3CCC4(CC3)Oc3c(F)cccc3[C@H]4N)cnc12` [Example 55] yielded a 50% inhibitory concentration (IC50) of at most 50 nM. On to `Cc1nc2c(N3CCCCC3)n[nH]c2nc1N1CCC2(CC1)Oc1ccccc1[C@H]2N` [Example 162, (3R)-1′-[5-methyl-3-(piperidin-1-yl)-1H-pyrazolo[3,4-b]pyrazin-6-yl]-3H-spiro[1-benzofuran-2,4′-piperidin]-3-amine], for which the IC50 is above 10000 nM.

The molecule `CN1CCN(c2n[nH]c3nc(N4CCC5(CC4)Cc4ccccc4[C@H]5N)cnc23)c2ccc(C#N)cc21` [Example 43] came in with a 50% inhibitory concentration (IC50) of at most 50 nM. Turning to `N[C@@H]1c2ccccc2CC12CN(c1cnc3c(N4CCCc5ncccc54)n[nH]c3n1)C2` [Example 115], the 50% inhibitory concentration (IC50) is at most 50 nM.

The molecule `N[C@@H]1c2ccccc2CC12CCN(c1ncc(-c3ccccc3Cl)s1)CC2` [Example 145, (S)-1′-(5-(2-chlorophenyl)thiazol-2-yl)-1,3-dihydrospiro[indene-2,4′-piperidin]-1-amine] gave a half-inhibitory concentration (IC50) of at most 50 nM.

`Nc1nccc(Sc2cnc(N3CCC4(CC3)Cc3ccccc3[C@H]4N)nc2)c1Cl` [Example 93] showed an IC50 of at most 50 nM. `N[C@@H]1c2ccccc2CC12CCN(c1cnc(SC3CCCCC3)cn1)CC2` [Example 233, (3S)-1′-[5-(cyclohexylsulfanyl)pyrazin-2-yl]-1,3-dihydrospiro[indene-2,4′-piperidin]-3-amine]: the 50% inhibitory concentration (IC50) is at most 50 nM. The result for `Nc1nccc(Sc2ccc(N3CCC4(CC3)Oc3ccccc3[C@H]4N)cn2)c1Cl` [Example 216] reads 50 to 1000 nM; that for `Cn1ccc2c(c1=O)CCCN2c1n[nH]c2nc(N3CCC4(CC3)Cc3c(F)cccc3[C@H]4N)cnc12` [Example 53], at most 50 nM. To `Nc1nccc(Oc2n[nH]c3nc(N4CCC5(CC4)Cc4ccccc4[C@@H]5N)cnc23)c1Cl` (single isomer, unassigned) [Example 136] belongs at most 50 nM; to `N[C@@H]1c2ccccc2CC12CCN(c1cc(OC(F)F)c3nccn3c1)CC2` [Example 202], at most 50 nM. Molecule `N[C@@H]1c2ccccc2CC12CCN(c1ncc(Sc3cccc(Cl)c3Cl)c(=O)[nH]1)CC2` [Example 261, 2-[(3S)-3-amino-1,3-dihydrospiro[indene-2,4′-piperidin]-1′-yl]-5-[(2,3-dichlorophenyl)sulfanyl]-3,4-dihydropyrimidin-4-one] returned an IC50 of at most 50 nM.

`N[C@@H]1c2ccccc2CC12CCN(c1ncc(N3CCc4ccccc43)nc1CO)CC2` [Example 213, (S)-(3-(1-amino-1,3-dihydrospiro[indene-2,4′-piperidin]-1′-yl)-6-(indolin-1-yl)pyrazin-2-yl) methanol] had an IC50 of 50 to 1000 nM. In turn, `Cc1cnc(CO)c(N2CCC3(CC2)Cc2ccccc2[C@@H]3N)n1` (single isomer, unassigned) [Example 121] showed a concentration for half-maximal inhibition (IC50) of at most 50 nM. Consider `Cc1c(Sc2ccnc(N)c2Cl)nc2sc(N3CCC4(CC3)Cc3ccccc3[C@H]4N)nn12` [Example 223], for which the IC50 was at most 50 nM. On to `Cc1cc(N2CCC3(CC2)Cc2ccccc2[C@H]3N)cnc1Sc1ccnc(N)c1Cl` [Example 219], for which the IC50 is at most 50 nM. `N#Cc1ccc2c(c1)N([C@H]1C[C@H](O)C1)CCN2c1n[nH]c2nc(N3CCC4(CC3)Cc3ccccc3C4N)cnc12` (some centres unmarked) [Example 35]: the IC50 is at most 50 nM.
